Experimental data from PMC11003488 (Journal of Enzyme Inhibition and Medicinal Chemistry, 2023).

Columns and labels:
Assay in all cases: NCI-60 SRB growth inhibition, one-dose and five-dose
Assay type in all cases: cell-based
[1] = system: CCRF-CEM; details: Homo sapiens
[2] = system: K-562; details: Homo sapiens
[3] = system: RPMI-8226; details: Homo sapiens
[4] = system: SR; details: Homo sapiens
[5] = system: A549/ATCC; details: Homo sapiens
[6] = system: EKVX; details: Homo sapiens
[7] = system: HOP-62; details: Homo sapiens
[8] = system: HOP-92; details: Homo sapiens
[9] = system: NCI-H226; details: Homo sapiens
[10] = system: NCI-H23; details: Homo sapiens
[11] = system: NCI-H322M; details: Homo sapiens
[12] = system: NCI-H460; details: Homo sapiens
[13] = system: NCI-H522; details: Homo sapiens
[14] = system: HCC-2998; details: Homo sapiens
[15] = system: HT29; details: Homo sapiens
[16] = system: KM12; details: Homo sapiens
[17] = system: SW-620; details: Homo sapiens
[18] = system: SF-268; details: Homo sapiens
[19] = system: SNB-75; details: Homo sapiens
[20] = system: U251; details: Homo sapiens
[21] = system: LOX IMVI; details: Homo sapiens
[22] = system: MALME-3M; details: Homo sapiens
[23] = system: M14; details: Homo sapiens
[24] = system: MDA-MB-435; details: Homo sapiens
[25] = system: SK-MEL-2; details: Homo sapiens, SK-MEL-2, read-out: percent growth inhibition
[26] = system: SK-MEL-28; details: Homo sapiens
[27] = system: SK-MEL-5; details: Homo sapiens
[28] = system: UACC-62; details: Homo sapiens
[29] = system: OVCAR-8; details: Homo sapiens, OVCAR-8, read-out: percent growth inhibition
[30] = system: NCI/ADR-RES; details: Homo sapiens
[31] = system: SK-OV-3; details: Homo sapiens
[32] = system: 786-0; details: Homo sapiens
[33] = system: A498; details: Homo sapiens
[34] = system: ACHN; details: Homo sapiens
[35] = system: CAKI-1; details: Homo sapiens
[36] = system: SN12C; details: Homo sapiens
[37] = system: TK-10; details: Homo sapiens
[38] = system: PC-3; details: Homo sapiens
[39] = system: DU-145; details: Homo sapiens
[40] = system: MCF7; details: Homo sapiens
[41] = system: BT-549; details: Homo sapiens
[42] = system: T-47D; details: Homo sapiens, T47D
[43] = system: MDA-MB-468; details: Homo sapiens
[44] = read-out: percent growth inhibition

Compound: CC(=O)Nc1ccc(/C=C/C(=O)c2cccc(NCc3ccc(NC(C)=O)cc3)c2)cc1 [Compound 5g, (E)-N-(4–(3-(3-((4-acetamidobenzyl)amino)phenyl)-3-oxoprop-1-en-1-yl)phenyl) acetamide]
- GI50 [1]: 4.52 µM
- inhibition at 10 µM [1, 44]: 116%
- GI50 ([2]; K562): 2.93 µM
- inhibition at 10 µM ([2]; K562, read-out: percent growth inhibition): 100%
- GI50 ([3]; RPMI-8226): 3.02 µM
- inhibition at 10 µM ([3]; RPMI-8226, read-out: percent growth inhibition): 130%
- GI50 [4]: 2.43 µM
- GI50 ([5]; A549): 15.8 µM
- inhibition at 10 µM ([5]; A549, read-out: percent growth inhibition): 10.9%
- GI50 [6]: 13.5 µM
- inhibition at 10 µM [6, 44]: 43.7%
- GI50 ([7]; HOP-62): 14.5 µM
- inhibition at 10 µM ([7]; HOP-62, read-out: percent growth inhibition): 35.3%
- GI50 ([8]; HOP-92): 11.8 µM
- inhibition at 10 µM ([8]; HOP-92, read-out: percent growth inhibition): 26.9%
- GI50 ([9]; NCI-H226): 12.9 µM
- inhibition at 10 µM ([9]; NCI-H226, read-out: percent growth inhibition): 126%
- GI50 ([10]; NCI-H23): 14.4 µM
- inhibition at 10 µM ([10]; NCI-H23, read-out: percent growth inhibition): 55.1%
- GI50 [11]: 13.8 µM
- inhibition at 10 µM [11, 44]: 28.7%
- GI50 ([12]; NCI-H460): 6.29 µM
- inhibition at 10 µM ([12]; NCI-H460, read-out: percent growth inhibition): 136%
- GI50 ([13]; NCI-H522): 6.54 µM
- inhibition at 10 µM ([13]; NCI-H522, read-out: percent growth inhibition): 159%
- GI50 ([14]; HCC 2998): 14.8 µM
- inhibition at 10 µM ([14]; HCC 2998, read-out: percent growth inhibition): 137%
- GI50 ([15]; HT-29): 5.75 µM
- inhibition at 10 µM ([15]; HT-29, read-out: percent growth inhibition): 164%
- GI50 ([16]; KM12): 13.4 µM
- inhibition at 10 µM ([16]; KM12, read-out: percent growth inhibition): 163%
- GI50 ([17]; SW-620): 1.9 µM
- inhibition at 10 µM ([17]; SW-620, read-out: percent growth inhibition): 158%
- GI50 ([18]; SF-268): 18.4 µM
- inhibition at 10 µM ([18]; SF-268, read-out: percent growth inhibition): 78.7%
- GI50 ([19]; SNB-75): 4.87 µM
- inhibition at 10 µM ([19]; SNB-75, read-out: percent growth inhibition): 17%
- GI50 ([20]; U-251): 3.2 µM
- inhibition at 10 µM ([20]; U-251, read-out: percent growth inhibition): 181%
- GI50 [21]: 1.9 µM
- inhibition at 10 µM [21, 44]: 191%
- GI50 [22]: 7.11 µM
- inhibition at 10 µM [22, 44]: 57.5%
- GI50 ([23]; M14): 12.6 µM
- inhibition at 10 µM ([23]; M14, read-out: percent growth inhibition): 77%
- GI50 ([24]; MDA-MB-435): 10.3 µM
- inhibition at 10 µM ([24]; MDA-MB-435, read-out: percent growth inhibition): 39%
- inhibition at 10 µM [25]: 28.3%
- GI50 ([26]; SK-MEL-28): 12.7 µM
- inhibition at 10 µM ([26]; SK-MEL-28, read-out: percent growth inhibition): 98.3%
- GI50 ([27]; SK-MEL-5): 12 µM
- inhibition at 10 µM ([27]; SK-MEL-5, read-out: percent growth inhibition): 99.6%
- GI50 ([28]; UACC-62): 8.03 µM
- inhibition at 10 µM ([28]; UACC-62, read-out: percent growth inhibition): 74.2%
- inhibition at 10 µM [29]: 129%
- GI50 [30]: 16.5 µM
- inhibition at 10 µM [30, 44]: 88.2%
- GI50 ([31]; SK-OV-3): 16.3 µM
- inhibition at 10 µM ([31]; SK-OV-3, read-out: percent growth inhibition): 0.18%
- GI50 ([32]; 786-0): 13.7 µM
- inhibition at 10 µM ([32]; 786-0, read-out: percent growth inhibition): 144%
- GI50 ([33]; A498): 14.2 µM
- inhibition at 10 µM ([33]; A498, read-out: percent growth inhibition): 16.6%
- GI50 [34]: 5.1 µM
- inhibition at 10 µM [34, 44]: 105%
- GI50 ([35]; CAKI-1): 12.2 µM
- inhibition at 10 µM ([35]; CAKI-1, read-out: percent growth inhibition): 54.9%
- GI50 [36]: 4.82 µM
- inhibition at 10 µM [36, 44]: 87%
- GI50 ([37]; TK-10): 13.8 µM
- inhibition at 10 µM ([37]; TK-10, read-out: percent growth inhibition): 33.2%
- GI50 ([38]; PC-3): 11.6 µM
- inhibition at 10 µM ([38]; PC-3, read-out: percent growth inhibition): 54.8%
- GI50 ([39]; DU-145): 11.8 µM
- inhibition at 10 µM ([39]; DU-145, read-out: percent growth inhibition): 61.7%
- GI50 ([40]; MCF7): 2.88 µM
- inhibition at 10 µM ([40]; MCF7, read-out: percent growth inhibition): 107%
- GI50 ([41]; BT-549): 10.4 µM
- inhibition at 10 µM ([41]; BT-549, read-out: percent growth inhibition): 63.7%
- GI50 [42]: 7.77 µM
- inhibition at 10 µM [42, 44]: 46.4%
- GI50 ([43]; MDA-MB-468): 10 µM
- inhibition at 10 µM ([43]; MDA-MB-468, read-out: percent growth inhibition): 68.2%
